The text below walks through data of the NIST ThermoML archive (doi:10.1021/je050039p).

Numbers after ± are expanded uncertainties.

The conditions of the data set: Crystal 1; visual observation.

`CCCCCCCCCCCCC` [tridecane]: the Normal melting temperature was -4.14 ± 0.5 °C. Under `c1ccccc1` [benzene] stands 5.90 ± 0.5 °C.
